Measured values published in the supplement of paper PMC10331698.
± gives the standard deviation of the averaged measurements.

What was measured:
Assay in all cases: level (log10 ratio to DMSO vehicle control); higher = higher biomarker level / cell amount than vehicle control
[1] = compound: O=C(O)C(F)(F)C(F)(F)C(F)(F)C(F)(F)C(F)(F)C(F)(F)C(F)(F)C(F)(F)C(F)(F)F [Perfluorodecanoic acid]; conditions: in DMSO
Description: (§1)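 BioMAP Diversity Plus panel of 12 human primary cell co-culture systems (3C, 4H, LPS, SAg, BT, BF4T, BE3C, CASM3C, HDF3CGF, KF3CT, MyoF, Mphg). Compounds were added 1 h before stimulation and left for 24 h (MyoF 48 h; BT 72 h for soluble read-outs or 6 d for IgG). Biomarkers were read by ELISA, cytotoxicity by SRB, PBMC viability and proliferation by Alamar Blue. Each well value was divided by the mean of 8 DMSO control wells on the same plate and log10 transformed; duplicate blinded samples were tested at 4 concentrations.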

[2] = compound: FC(F)(F)C(F)(F)C(F)(F)C(F)(F)C(F)(F)CCI [1-Iodo-1H,1H,2H,2H-perfluoroheptane]; conditions: in DMSO
Description: as §1

[3] = compound: FC(F)(F)C(F)(F)C(F)(F)C(F)(F)C(F)(F)C(F)(F)I [Perfluoro-1-iodohexane]; conditions: in DMSO
Description: as §1

[4] = compound: OCCCC(F)(F)C(F)(F)C(F)(F)C(F)(F)C(F)(F)C(F)(F)C(F)(F)F [7:3 Fluorotelomer alcohol]; conditions: 6700 nM; in DMSO
Description: as §1

[5] = compound: FC(F)(F)C(F)(F)C(F)(F)C(F)(F)C(F)(F)C(F)(F)C(F)(F)C(F)(F)CCS [2-(Perfluorooctyl)ethanthiol]; conditions: in DMSO
Description: as §1

[6] = compound: O=C(O)C(F)(F)C(F)(F)C(F)(F)C(F)(F)F [Perfluoropentanoic acid]; conditions: in DMSO
Description: as §1

[7] = compound: O=C(O)C(F)(F)C(F)(F)C(F)F [4H-Perfluorobutanoic acid]; conditions: in DMSO
Description: as §1

[8] = compound: O=S(=O)(O)C(F)(F)C(F)(F)C(F)(F)C(F)(F)C(F)(F)C(F)(F)F [Perfluorohexanesulfonic acid]; conditions: in DMSO
Description: as §1

Test System	level (log10) ([1]; 6700 nM)	level (log10) ([1]; 20000 nM)	level (log10) ([2]; 6700 nM)	level (log10) ([2]; 20000 nM)	level (log10) ([2]; 60000 nM)	level (log10) ([3]; 6700 nM)	level (log10) ([3]; 20000 nM)	level (log10) ([3]; 60000 nM)	level (log10) [4]	level (log10) ([5]; 6700 nM)	level (log10) ([5]; 20000 nM)	level (log10) ([6]; 6700 nM)	level (log10) ([6]; 20000 nM)	level (log10) ([6]; 60000 nM)	level (log10) ([7]; 6700 nM)	level (log10) ([7]; 20000 nM)	level (log10) ([7]; 60000 nM)	level (log10) ([8]; 6700 nM)	level (log10) ([8]; 20000 nM)	level (log10) ([8]; 60000 nM)
MyoF:CD106/VCAM-1	-0.019 ± 0.0071	-0.084 ± 0.02	0.001 ± 0.0042	-0.026 ± 0.0028	-0.0205 ± 0.0064	-0.031 ± 0.016	-0.102 ± 0.064	-0.337 ± 0.03	-0.013 ± 0.011	0.0155 ± 0.00071	-0.0735 ± 0.083	0.0025 ± 0.005	0.001	-0.001 ± 0.0057	-0.0065 ± 0.011	-0.017 ± 0.0071	0.0135 ± 0.015	0.005 ± 0.018	0.003 ± 0.0042	-0.0145 ± 0.023
MyoF:CXCL8/IL-8	0.0205 ± 0.037	0.0085 ± 0.016	-0.0015 ± 0.019	0.028 ± 0.018	0.043 ± 0.038	0.021 ± 0.041	0.023 ± 0.041	0.0385 ± 0.028	0.017 ± 0.052	-0.0085 ± 0.011	0.007 ± 0.016	-0.008 ± 0.02	0.01 ± 0.0071	0.024 ± 0.014	-0.0125 ± 0.059	-0.0145 ± 0.0035	0.0465 ± 0.074	0.001 ± 0.061	-0.0185 ± 0.063	-0.018 ± 0.051
MyoF:Collagen I	-0.0065 ± 0.059	-0.417 ± 0.071	-0.0065 ± 0.012	0.007 ± 0.0042	0.0375 ± 0.0035	-0.0295 ± 0.019	-0.062 ± 0.04	-0.246 ± 0.094	-0.0125 ± 0.011	-0.001 ± 0.042	-0.0265 ± 0.029	-0.0065 ± 0.0092	-0.008 ± 0.0085	0.0065 ± 0.015	-0.0215 ± 0.022	-0.0115 ± 0.018	-0.0115 ± 0.0092	-0.0035 ± 0.023	0.008 ± 0.025	0.019 ± 0.028
MyoF:Collagen III	-0.028 ± 0.03	-0.36 ± 0.066	0.0085 ± 0.029	0.0185 ± 0.0092	0.041 ± 0.013	-0.0225 ± 0.0064	-0.039 ± 0.0057	-0.132 ± 0.036	-0.0035 ± 0.012	-0.0105 ± 0.015	-0.0345 ± 0.018	-0.001 ± 0.0028	0.0055 ± 0.0021	-0.001 ± 0.0085	0.022 ± 0.0099	0.0155 ± 0.0064	0.034 ± 0.014	0.0035 ± 0.005	-0.013 ± 0.0028	-0.0125 ± 0.033
MyoF:Collagen IV	0.334 ± 0.037	0.38 ± 0.086	0.03 ± 0.0071	0.0715 ± 0.0035	0.072 ± 0.028	-0.033 ± 0.027	-0.031 ± 0.028	0.193 ± 0.013	-0.02 ± 0.0085	-0.009 ± 0.09	0.012 ± 0.05	-0.007 ± 0.025	-0.012 ± 0.016	-0.0025 ± 0.023	0.0025 ± 0.0035	0.0005 ± 0.0035	0.023 ± 0.027	-0.023 ± 0.018	-0.0065 ± 0.032	0 ± 0.031
MyoF:Decorin	0.0055 ± 0.0064	-0.071 ± 0.018	-0.012 ± 0.0028	-0.022 ± 0.023	-0.007 ± 0.034	0.0185 ± 0.011	0.023 ± 0.0042	-0.012 ± 0.044	0.0355 ± 0.059	-0.0145 ± 0.018	-0.0105 ± 0.033	-0.015 ± 0.0028	-0.0125 ± 0.0092	0.005 ± 0.048	-0.005 ± 0.048	0.003 ± 0.064	0.0655 ± 0.088	-0.0305 ± 0.046	-0.0105 ± 0.00071	-0.0095 ± 0.0064
MyoF:MMP-1	-0.0005 ± 0.023	-0.048 ± 0.0057	-0.013 ± 0.038	-0.0185 ± 0.037	0.037 ± 0.011	0.036 ± 0.0071	0.451 ± 0.19	0.661 ± 0.0028	-0.004	-0.0265 ± 0.0092	-0.0545 ± 0.037	-0.009 ± 0.02	-0.0215 ± 0.011	0.009 ± 0.071	-0.0355 ± 0.07	-0.07 ± 0.054	0.022 ± 0.044	-0.029 ± 0.0085	-0.012	-0.002 ± 0.0028
MyoF:PAI-I	0.0035 ± 0.012	0.0205 ± 0.025	-0.0005 ± 0.00071	0.0005 ± 0.00071	-0.002 ± 0.0042	-0.001 ± 0.0028	-0.025 ± 0.0057	-0.12 ± 0.054	0.0015 ± 0.0035	-0.001 ± 0.0042	-0.0005 ± 0.012	-0.0035 ± 0.00071	0.005 ± 0.0071	0.0075 ± 0.0021	-0.0105 ± 0.019	-0.023 ± 0.023	-0.0095 ± 0.011	-0.0055 ± 0.013	-0.0135 ± 0.015	-0.0055 ± 0.012
MyoF:SRB	-0.033 ± 0.0014	-0.08 ± 0.0099	0.001 ± 0.0099	0.0085 ± 0.015	0.0085 ± 0.025	-0.0405 ± 0.05	-0.263 ± 0.16	-0.712 ± 0.15	0.006 ± 0.0071	-0.0005 ± 0.0092	0.0025 ± 0.0021	0.003 ± 0.0028	-0.009 ± 0.0014	-0.004 ± 0.0057	0.0005 ± 0.013	0.002 ± 0.0085	0.0055 ± 0.0021	0.003 ± 0.0057	-0.0045 ± 0.0035	-0.0165 ± 0.021
MyoF:TIMP-1	-0.0345 ± 0.035	-0.059 ± 0.038	0.0095 ± 0.0064	-0.009 ± 0.0028	-0.038 ± 0.025	0.036 ± 0.0085	0.0395 ± 0.011	-0.058 ± 0.0014	0.003 ± 0.017	-0.033 ± 0.014	-0.0215 ± 0.005	-0.0195 ± 0.023	-0.043 ± 0.034	-0.002 ± 0.042	0.0045 ± 0.039	0.023 ± 0.016	0.0465 ± 0.076	0.0215 ± 0.064	0.0835 ± 0.053	0.099 ± 0.042
MyoF:alpha-SM Actin	0.031 ± 0.027	-0.04 ± 0.016	-0.0265 ± 0.029	-0.003 ± 0.018	-0.009 ± 0.0071	-0.073 ± 0.021	-0.173 ± 0.086	-0.38 ± 0.0092	0.0125 ± 0.0092	-0.0145 ± 0.036	-0.103 ± 0.037	0.0265 ± 0.07	0.0355 ± 0.052	0.0485 ± 0.044	-0.0335 ± 0.047	-0.0245 ± 0.049	-0.026 ± 0.034	0.012 ± 0.0071	0.006 ± 0.021	0.008 ± 0.031
MyoF:bFGF	0.001 ± 0.0042	0.0055 ± 0.0035	0.0005 ± 0.0078	0.005 ± 0.011	0.046 ± 0.013	-0.0085 ± 0.0064	-0.002 ± 0.0042	0.0235 ± 0.036	-0.006 ± 0.0028	-0.0075 ± 0.019	-0.017 ± 0.0014	-0.021 ± 0.0014	-0.0085 ± 0.0078	-0.0055 ± 0.0035	-0.023 ± 0.016	-0.007 ± 0.02	0.0045 ± 0.012	0.0035 ± 0.005	0.005 ± 0.0085	0.004 ± 0.014
